The target in experiment [1] is DNA sequence homologous to I (Seq II, SEQ ID NO:2). The experiment in a line: SPR binding specificity, Seq II. As for the experimental part: (§1) Graphical analysis of Surface Plasmon Resonance (SPR) data was carried out using DeltaGraph (Rockware Inc.). SPR analysis was conducted on a Reichert SR7000 refractometer using Reichert gold sensor slides that consist of a mixed self-assembled monolayer of thiol-PEG-alcohols and thio-PEG-carboxylic acids (˜9:1; PEG=polyethylene glycol). Amine functionalized small molecules were attached by […]/EDC coupling to the carboxy termini of the surface. After activating the monolayer, molecules were covalently attached through the addition of a 1 mg/mL solution of molecule in a sodium acetate buffer (20 mM, pH=5.5). Unreacted activated esters were quenched through the addition of ethanolamine. A flow rate of 10 μL/min and injection volumes of 150 μL was used throughout the experiment. RNA solutions were made to be 15.3 nM, 62.5 nM, 250 nM, 500 nM, 1 μM, 2 μM, 10 μM, and 50 μM. […]
(§2) Specificity was assessed by measuring the affinity of 1-1 to three other oligonucleotides: the DNA sequence homologous to I (Seq II, FIG. 7C, SEQ ID NO:2), the alternate RNA stem-loop (Seq III, FIG. 7D, SEQ ID NO:3) (Karan et al., “RNA-Selective Coordination Complexes Identified via Dynamic Combinatorial Chemistry,” J. Am. Chem. Soc. 123:7455-7456 (2001), which is hereby incorporated by reference in its entirety), and an RNA stem loop with an altered loop sequence (Seq IV, FIG. 7E, SEQ ID NO:4).
A general note: SPR reads the build-up and loss of mass on a sensor chip optically.

Experiment [2] deals with alternate RNA stem-loop (Seq III, SEQ ID NO:3). Put plainly: SPR binding specificity, Seq III. As for the experimental part: as §1, §2
The target in experiment [3] is RNA stem loop with an altered loop sequence (Seq IV, SEQ ID NO:4). Put plainly: SPR binding specificity, Seq IV. Particulars: read-out: affinity for sequence IV. As for the experimental part: as §1, §2
Experiment [4] concerns HIV-1 frameshift-inducing RNA stem-loop. The experiment in a line: Resin-bead fluorescence microscopy screen (RBDCC) with Cy3-labeled RNA. The experiment is classed as binding. Particulars: x-y: x resin-bound, y solution phase; 500 nM RNA stem-loop, 72 hours, 50 msec exposure. The protocol:
First, as a control, 450 beads (150 of each size, 3 beads/compound, 387 nmol total) were placed in a 1.5 ml solid phase reaction vessel. To this was added a 1 ml solution of 1 μM RNA-Cy3 in phosphate buffer. This solution was agitated for 3 hours on a LabQuake™ rotator. After such time, the solution was drained by vacuum and washed three times with buffer (1 ml, 1 min. each). After washing, the resin was suspended in 2 ml buffer and placed in a Petri dish.
Next, RBDCC experiments were run in quadruplet. […] After such time, the solution was removed from 1 of the 4 experiments and the resin was washed with buffer, plated with 2 ml buffer, and analyzed by fluorescence microscopy as described above. […]
1, 2, and 3 were individually synthesized on TentaGel (0.86 nmol/bead), and equilibrated as described above in separate vessels containing only 1, 2, or 3 solution phase monomers and 500 nM RNA stem-loop, half the concentration used in the initial screen. After 72 hours the resin was washed in a manner identical to the conditions of screen number 4 (i.e., the highest stringency screen) and analyzed by fluorescence microscopy (50 msec. exposure) (see FIGS. 6A-I).

Experiment [5] has as its target HIV-1 frameshift-inducing RNA stem-loop (SEQ ID NO:1). Put plainly: Fluorescence titration of Cy-3 labeled HIV-1 RNA stem-loop. The experiment is classed as binding. Particulars: stem-loop 4 × 10^−7 M, PBS buffer, 25° C. As for the experimental part: The binding of dicarba analogs to the HIV-1 frameshift-inducing RNA was measured using fluorescence spectroscopy. Fluorescence titrations were performed on a Varian Cary eclipse fluorescence spectrophotometer using 1 cm path-length quartz fluorescence cell. The solution of Cy-3 labeled HIV-1 RNA stem-loop in PBS buffer (400 μL, 400 nM) was taken in the cell and excited with a wavelength of 550 nm. A PMT voltage of 715 V was used for collecting the fluorescence data and the emission spectrum was collected from 555 to 600 nm wavelength range. The ligand solution in PBS buffer was added to the target RNA in the cell in either 2 or 4 μL increments and was allowed to equilibrate for 10 minutes before recording the emission spectrum. Statistical analysis of the data was carried out using Origin 7 (OriginLab corporation). Binding constants were determined by fitting the data to one-site binding model equation.
A 5′-Cy3 labeled upper stem-loop of HIV-1 RNA (SEQ ID NO:1) was titrated with increasing amount of the dicarba analogs in a phosphate buffer (PBS, pH 7.4) using the same protocol to that described in Example 3 above. The fluorescence intensity of the labeled RNA stem-loop decreased as a function of the ligand concentration. […] Normally, one would expect a greater difference between the affinities of the two isomers.
To further evaluate the binding selectivity of dicarba analogs to the frameshift-inducing stem-loop, fluorescence titrations were repeated in the presence of twenty-fold excess concentration of yeast tRNA. […] In an interesting result it was discovered that the monomeric compound (5) also bound to the HIV-1 RNA stem-loop with similar affinity as that of the other analogs, but the binding affinity was diminished in the presence of tRNA. […] Quinoline is a known intercalator of nucleotide bases and has the capability to interact with RNA non-specifically. But it is the peptidic part of the molecule in ligands 5-5 E and 5-5 Z that imparts specificity to the interaction between the ligand and the RNA stem-loop. The peptidic part on monomer 5 is insufficient to impart specificity to the interaction as evident from the results.

Like-named read-outs stand apart in the source and are kept apart here.

Take `CCc1nc2ccccc2cc1C(=O)N[C@@H](CSSC[C@H](NC(=O)c1cc2ccccc2nc1CC)C(=O)N1CCC[C@H]1C(=O)N[C@@H](Cc1ccccc1)C(=O)NCCCN)C(=O)N1CCC[C@H]1C(=O)N[C@@H](Cc1ccccc1)C(=O)NCCCN` [dimer 1-1]: the “affinity for sequence II” value in experiment [1] was “no measurable affinity”. In experiment [2], the “affinity for sequence III” value is “no measurable affinity”. The Kd in experiment [3] was above 90000 nM; in experiment [5] (8 μM tRNA (twenty-fold excess), read-out: Binding Affinity (Kd) in the presence of excess yeast tRNA), 320 ± 70 nM; in experiment [5] (fluorescence titration, read-out: Binding Affinity (Kd)), 350 ± 110 nM. Besides, the “affinity for the RNA stem-loop by bead fluorescence intensity” value in experiment [4] was “highest affinity”.

The values are drawn from patent publication US9212205B2, “Nucleic acid binding compounds and methods of use” (University of Rochester, priority 2007, dated 2015).
